Experimental data from US20240043427A1 (Gilead Sciences, Inc., priority 2020, published 2024).

Molecular target: CD73 (Homo sapiens (Human), UniProt P21589)
Format: biochemical
Conditions: 1 mM NaH2PO4 in enzyme buffer, CD73 0.3 nM, AMP 15 uM
Protocol: Compound serial dilutions were pre-spotted into Thermo Nunc assay plate. 50 uL CD73 enzyme buffer (CD73 purchased from R&D system=0.6 nM, 25 mM Tris, pH 7.4, 5 mM MgCl2, 1 mM NaH2PO4) was added into the assay plate and incubate for 15 mins. […] After incubation for 60 mins, the supernatant (20 uL) was transferred into 384-well NUNC plate pre-filled with 60 uL Quench buffer (80% organic and 20% water+0.1% FA) with internal standard. The plate was spun down at 4500 rpm for 20 mins, then 20 uL of supernatant was transferred to another Nunc plate prefilled with 80 uL of water. The samples were analyzed using Rapid fire.

CD73, sequence (P21589 27-574): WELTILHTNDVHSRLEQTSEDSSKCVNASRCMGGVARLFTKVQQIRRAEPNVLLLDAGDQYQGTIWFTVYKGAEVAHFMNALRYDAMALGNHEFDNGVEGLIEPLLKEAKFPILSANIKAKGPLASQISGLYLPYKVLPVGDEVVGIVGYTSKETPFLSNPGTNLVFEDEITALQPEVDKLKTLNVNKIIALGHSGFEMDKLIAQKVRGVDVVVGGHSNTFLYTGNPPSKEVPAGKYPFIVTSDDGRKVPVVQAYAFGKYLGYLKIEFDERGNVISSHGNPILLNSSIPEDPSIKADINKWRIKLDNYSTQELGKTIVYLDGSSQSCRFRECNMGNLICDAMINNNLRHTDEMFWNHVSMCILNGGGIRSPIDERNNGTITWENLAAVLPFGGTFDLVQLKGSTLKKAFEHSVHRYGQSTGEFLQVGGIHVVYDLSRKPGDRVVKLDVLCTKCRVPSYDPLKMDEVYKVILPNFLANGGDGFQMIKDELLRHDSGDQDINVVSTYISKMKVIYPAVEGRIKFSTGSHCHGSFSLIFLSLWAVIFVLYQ

Row | IC50 [nM] | SMILES
1 | 7.17 | O=c1[nH]cc(-c2cc([C@H]3C[C@@H]3c3ncc(C(F)(F)F)s3)c3nccn3n2)c(=O)[nH]1 (racemic) [Example 364, 5-(8-((1S,2S)-2-(5-(trifluoromethyl)thiazol-2-yl)cyclopropyl)imidazo[1,2-b]pyridazin-6-yl)pyrimidine-2,4(1H,3H)-dione]
2 | 6.6 | O=c1[nH]cc(-c2cc([C@H]3C[C@@H]3c3cnn(C(F)(F)F)c3)c3nccn3n2)c(=O)[nH]1 (racemic) [Example 366, 5-(8-((1S,2S)-2-(1-(trifluoromethyl)-1H-pyrazol-4-yl)cyclopropyl)imidazo[1,2-b]pyridazin-6-yl)pyrimidine-2,4(1H,3H)-dione]
3 | 3.73 | O=c1[nH]cc(-c2cc([C@H]3C[C@@H]3c3cnn(C(F)F)c3)c3nccn3n2)c(=O)[nH]1 (racemic) [Example 368, 5-(8-((1S,2S)-2-(1-(difluoromethyl)-1H-pyrazol-4-yl)cyclopropyl)imidazo[1,2-b]pyridazin-6-yl)pyrimidine-2,4(1H,3H)-dione]
4 | 21.5 | O=c1[nH]cc(-c2cc([C@H]3C[C@@H]3c3ccn(C(F)F)n3)c3nccn3n2)c(=O)[nH]1 (racemic) [Example 369, 5-(8-((1S,2S)-2-(1-(difluoromethyl)-1H-pyrazol-3-yl)cyclopropyl)imidazo[1,2-b]pyridazin-6-yl)pyrimidine-2,4(1H,3H)-dione]
5 | 4.02 | O=c1[nH]cc(-c2cc([C@H]3C[C@@H]3c3cnn(C(F)F)c3)c3ncc(F)n3n2)c(=O)[nH]1 (racemic) [Example 370, 5-(8-((1S,2S)-2-(1-(difluoromethyl)-1H-pyrazol-4-yl)cyclopropyl)-3-fluoroimidazo[1,2-b]pyridazin-6-yl)pyrimidine-2,4(1H,3H)-dione]
6 | 3.4 | O=c1[nH]cc(-c2cc([C@H]3C[C@@H]3c3ccc(OC(F)(F)F)cn3)c3nccn3n2)c(=O)[nH]1 (racemic) [Example 372, 5-(8-((1S,2S)-2-(5-(trifluoromethoxy)pyridin-2-yl)cyclopropyl)imidazo[1,2-b]pyridazin-6-yl)pyrimidine-2,4(1H,3H)-dione]
7 | 4.1 | O=c1[nH]cc(-c2cc([C@H]3C[C@@H]3c3ccc(OC(F)(F)F)cn3)c3ncc(F)n3n2)c(=O)[nH]1 (racemic) [Example 374, 5-(3-fluoro-8-((1S,2S)-2-(5-(trifluoromethoxy)pyridin-2-yl)cyclopropyl)imidazo[1,2-b]pyridazin-6-yl)pyrimidine-2,4(1H,3H)-dione]
8 | 8.07 | O=c1[nH]cc(-c2cc([C@H]3C[C@@H]3c3ccc(OC(F)(F)F)nc3)c3nccn3n2)c(=O)[nH]1 (racemic) [Example 376, 5-(8-((1S,2S)-2-(6-(trifluoromethoxy)pyridin-3-yl)cyclopropyl)imidazo[1,2-b]pyridazin-6-yl)pyrimidine-2,4(1H,3H)-dione]
9 | 7.66 | O=c1[nH]cc(-c2cc([C@H]3C[C@@H]3c3ncc(C(F)(F)F)cn3)c3nccn3n2)c(=O)[nH]1 (racemic) [Example 377, 5-(8-((1S,2S)-2-(5-(trifluoromethyl)pyrimidin-2-yl)cyclopropyl)imidazo[1,2-b]pyridazin-6-yl)pyrimidine-2,4(1H,3H)-dione]
10 | 6.45 | O=c1[nH]cc(-c2cc([C@H]3C[C@@H]3c3ncc(C(F)(F)F)cn3)c3ncc(F)n3n2)c(=O)[nH]1 (racemic) [Example 378, 5-(3-fluoro-8-((1S,2S)-2-(5-(trifluoromethyl)pyrimidin-2-yl)cyclopropyl)imidazo[1,2-b]pyridazin-6-yl)pyrimidine-2,4(1H,3H)-dione]
11 | 1.9 | N#Cc1ccc([C@H]2C[C@@H]2c2cc(-c3c[nH]c(=O)[nH]c3=O)nn3ccnc23)c(F)c1 (racemic) [Example 407, 4-((1S,2S)-2-(6-(2,4-dioxo-1,2,3,4-tetrahydropyrimidin-5-yl)imidazo[1,2-b]pyridazin-8-yl)cyclopropyl)-3-fluorobenzonitrile]
12 | 2.35 | N#Cc1cccc([C@H]2C[C@@H]2c2cc(-c3c[nH]c(=O)[nH]c3=O)nn3ccnc23)c1F (racemic) [Example 408, 3-((1S,2S)-2-(6-(2,4-dioxo-1,2,3,4-tetrahydropyrimidin-5-yl)imidazo[1,2-b]pyridazin-8-yl)cyclopropyl)-2-fluorobenzonitrile]
13 | 6.11 | N#Cc1ccc([C@H]2C[C@@H]2c2cc(-c3c[nH]c(=O)[nH]c3=O)nn3ccnc23)cc1C(F)(F)F (racemic) [Example 411, 4-((1S,2S)-2-(6-(2,4-dioxo-1,2,3,4-tetrahydropyrimidin-5-yl)imidazo[1,2-b]pyridazin-8-yl)cyclopropyl)-2-(trifluoromethyl)benzonitrile]
14 | 6 | N#Cc1cc([C@H]2C[C@@H]2c2cc(-c3c[nH]c(=O)[nH]c3=O)nn3ccnc23)ccc1C(F)(F)F (racemic) [Example 412, 5-((1S,2S)-2-(6-(2,4-dioxo-1,2,3,4-tetrahydropyrimidin-5-yl)imidazo[1,2-b]pyridazin-8-yl)cyclopropyl)-2-(trifluoromethyl)benzonitrile]
15 | 3.01 | N#Cc1ccc([C@H]2C[C@@H]2c2cc(-c3c[nH]c(=O)[nH]c3=O)nn3ccnc23)cc1OC(F)(F)F (racemic) [Example 413, 4-((1S,2S)-2-(6-(2,4-dioxo-1,2,3,4-tetrahydropyrimidin-5-yl)imidazo[1,2-b]pyridazin-8-yl)cyclopropyl)-2-(trifluoromethoxy)benzonitrile]
16 | 2.84 | N#Cc1cc([C@H]2C[C@@H]2c2cc(-c3c[nH]c(=O)[nH]c3=O)nn3ccnc23)ccc1OC(F)(F)F (racemic) [Example 414, 5-((1S,2S)-2-(6-(2,4-dioxo-1,2,3,4-tetrahydropyrimidin-5-yl)imidazo[1,2-b]pyridazin-8-yl)cyclopropyl)-2-(trifluoromethoxy)benzonitrile]
17 | 0.15 | O=c1[nH]cc(-c2cc(N3CC(Oc4ccc(C(F)(F)F)cn4)C(F)(F)C3)c3ncnn3n2)c(=O)[nH]1 (racemic) [Example 432, 5-(8-(3,3-difluoro-4-((5-(trifluoromethyl)pyridin-2-yl)oxy)pyrrolidin-1-yl)-[1,2,4]triazolo[1,5-b]pyridazin-6-yl)pyrimidine-2,4(1H,3H)-dione]
18 | 95.3 | O=c1[nH]cc(-c2cc(N3CCC(CC(F)(F)F)C3)c3nccn3n2)c(=O)[nH]1 (racemic) [Example 452, 5-(8-(3-(2,2,2-trifluoroethyl)pyrrolidin-1-yl)imidazo[1,2-b]pyridazin-6-yl)pyrimidine-2,4(1H,3H)-dione]
19 | 76 | O=c1[nH]cc(-c2cc(N3CCC(CC(F)F)C3)c3nccn3n2)c(=O)[nH]1 (racemic) [Example 453, 5-(8-(3-(2,2-difluoroethyl)pyrrolidin-1-yl)imidazo[1,2-b]pyridazin-6-yl)pyrimidine-2,4(1H,3H)-dione]
20 | 2.56 | O=c1[nH]cc(-c2cc([C@H]3C[C@@H]3c3nc4ccccc4[nH]3)c3nccn3n2)c(=O)[nH]1 (racemic) [Example 461, 5-(8-((1S,2S)-2-(1H-benzo[d]imidazol-2-yl)cyclopropyl)imidazo[1,2-b]pyridazin-6-yl)pyrimidine-2,4(1H,3H)-dione]
21 | 9.39 | O=C(Nc1ccccc1)[C@H]1C[C@@H]1c1cc(-c2c[nH]c(=O)[nH]c2=O)nn2ccnc12 (racemic) [Example 462, (1S,2S)-2-(6-(2,4-dioxo-1,2,3,4-tetrahydropyrimidin-5-yl)imidazo[1,2-b]pyridazin-8-yl)-N-phenylcyclopropane-1-carboxamide]
22 | 61.9 | CC(C)(O)[C@H]1C[C@@H]1c1cc(-c2c[nH]c(=O)[nH]c2=O)nn2ccnc12 (racemic) [Example 463, 5-(8-((1S,2S)-2-(2-hydroxypropan-2-yl)cyclopropyl)imidazo[1,2-b]pyridazin-6-yl)pyrimidine-2,4(1H,3H)-dione]
23 | 1.47 | O=c1[nH]cc(-c2cc([C@H]3C[C@@H]3c3ccc(F)c(F)c3F)c3nccn3n2)c(=O)[nH]1 (racemic) [Example 464, 5-(8-((1S,2S)-2-(2,3,4-trifluorophenyl)cyclopropyl)imidazo[1,2-b]pyridazin-6-yl)pyrimidine-2,4(1H,3H)-dione]
24 | 3.47 | N#Cc1ccc(F)c([C@H]2C[C@@H]2c2cc(-c3c[nH]c(=O)[nH]c3=O)nn3ccnc23)c1 (racemic) [Example 466, 3-((1S,2S)-2-(6-(2,4-dioxo-1,2,3,4-tetrahydropyrimidin-5-yl)imidazo[1,2-b]pyridazin-8-yl)cyclopropyl)-4-fluorobenzonitrile]
25 | 1.67 | O=c1[nH]cc(-c2cc([C@H]3C[C@@H]3c3c(F)ccc(F)c3F)c3nccn3n2)c(=O)[nH]1 (racemic) [Example 468, 5-(8-((1S,2S)-2-(2,3,6-trifluorophenyl)cyclopropyl)imidazo[1,2-b]pyridazin-6-yl)pyrimidine-2,4(1H,3H)-dione]
26 | 0.7 | O=c1[nH]cc(-c2cc([C@H]3C[C@@H]3c3cc4c(cn3)cnn4CC(F)(F)F)c3ncc(Cl)n3n2)c(=O)[nH]1 (racemic) [Example 471, 5-(3-chloro-8-((1S,2S)-2-(1-(2,2,2-trifluoroethyl)-1H-pyrazolo[4,3-c]pyridin-6-yl)cyclopropyl)imidazo[1,2-b]pyridazin-6-yl)pyrimidine-2,4(1H,3H)-dione]
27 | 3.07 | CC1(C)C(=O)N(CC(F)(F)F)c2cc([C@H]3C[C@@H]3c3cc(-c4c[nH]c(=O)[nH]c4=O)nn4ccnc34)ncc21 (racemic) [Example 718, 5-[8-[(1S,2S)-2-[3,3-dimethyl-2-oxo-1-(2,2,2-trifluoroethyl)pyrrolo[3,2-c]pyridin-6-yl]cyclopropyl]imidazo[1,2-b]pyridazin-6-yl]-1H-pyrimidine-2,4-dione]
28 | 2.66 | O=c1[nH]cc(-c2cc([C@H]3C[C@@H]3c3cc(OCC(F)(F)F)c4ncccc4c3)c3nccn3n2)c(=O)[nH]1 (racemic) [Example 732, 5-(8-((1S,2S)-2-(8-(2,2,2-trifluoroethoxy)quinolin-6-yl)cyclopropyl)imidazo[1,2-b]pyridazin-6-yl)pyrimidine-2,4(1H,3H)-dione]
